Measured values as given in patent publication US20260001863A1, “NOVEL PYRIDAZINES” (Boehringer Ingelheim International GmbH, priority 2019, published 2026).

Tested on: plasma LPA
Assay: Assay C: In Vivo (plasma LPA reduction after oral dosing)
Conditions: rats, oral 5 mg/kg, plasma 8 hours post application vs baseline; sum of LPA 16:0, 18:0, 18:1, 18:2, 20:4
Procedure: The test substance was solubilized in 0.5% natrosol supplemented with 0.015% Tween 80 for oral application to rats at a dose of 5 mg/kg. Blood samples were collected before compound administration and 8 hours post application on ice using EDTA as coagulation agent. Subsequently, plasma was prepared by centrifugation and stored until analysis at −20° C.
LPAs from plasma samples were extracted by using the procedure described by Scherer et al. (Clinical chemistry 2009, 55, 1218-22). 35 μL of heparinized plasma was mixed with 200 μL 40 mM disodium hydrogen phosphate buffer containing 30 mM citric acid (pH 4) and 1 μM 17:0 LPA (internal standard). Subsequently, 500 μL butanol was added and shaken vigorously for 10 min. Samples were centrifuged afterwards at 4000 rpm, 4° C., for 10 min. 500 μL of the organic upper phase was transferred to a fresh 96-deep-well plate and evaporated with a gentle nitrogen flow of 15 psi for 45 min. The resultant residual was dissolved in 100 μL ethanol prior to LC-MS analysis.
A Triple Quad 6500 (ABSciex, Toronto, Canada) was equipped with an Agilent 1290 LC system (Agilent, Santa Clara, CA) a CTC autosampler and an Atlantis 50×2.1-mm, 3-μm HILIC LC column (Waters, Elstree, UK). Eluent A contained 0.2% formic acid and 50 mM ammonium formate in water, whereas eluent B consisted of 0.2% formic acid in acetonitrile. […] At 1.8 min, solvent B was set back to 95% and stayed constant for 0.7 min for re-equilibration of the column. The following LPA species were monitored (DP: declustering potential and CE: collision energy): 16:0 LPA at 409.2/152.8, DP=−150, CE=−28; 18:0 LPA at 437.3/152.8, DP=−60, CE=−28; 18:1 LPA at 435.2/152.8, DP=−40, CE=−28; 18:2 LPA at 433.2/152.8, DP=−150, CE=−28; 20:4 LPA at 457.2/152.8, DP=−100, CE=−29 and 17:0 LPA at 423.5/152.8, DP=−100, CE=−36. LPA depletion in percent was calculated based on the baseline LPA levels before test compound application. The sum of LPA refers to the species 16:0; 18:0; 18:1; 18:2 and 20:4

Going from `CC(=O)N1CC2(C1)CN(c1ccc(CNc3ccc(OCc4ccc(C(F)(F)F)nc4)nn3)cc1)C2` [Example 1.1, 1-(6-(4-(((6-((6-(trifluoromethyl)pyridin-3-yl)methoxy)pyridazin-3-yl)amino)methyl)phenyl)-2,6-diazaspiro[3.3]heptan-2-yl)ethan-1-one] to `CC(=O)N1CC2(C1)CN(c1ccc(CNc3ccc(OCc4ccc(C(F)F)nc4)nn3)cc1)C2` [Example 1.2], the “LPA reduction at 8 h” value rises from 96.5% to 96.7%.

Going from `CCc1nc2c(C)cc(N3CCN(CC(=O)N4CC(O)C4)CC3)cn2c1N(C)c1nc(-c2ccc(F)cc2)c(C#N)s1` [Example 2 in WO2014/139882, reference compound] to `CC(=O)N1CCN(c2ccc(CNc3ccc(OCc4cnc(C(F)F)c(F)c4)nn3)cc2)CC1` [Example 2.12], the “LPA reduction at 8 h” value rises from 58.1% to 94.6%.

First: CC(=O)N1CCN(c2ccc(CNc3ccc(OCc4ccc(C(F)(F)F)nc4)nn3)cc2)CC1 [Example 2.2]
Second: CC(=O)N1CCN(c2ccc(CNc3ccc(OCc4ccc(C(F)(F)F)nc4)nn3)cn2)CC1 [Example 2.5]
The “LPA reduction at 8 h” value of the first is lower: 94.1% for the first, 95.9% for the second.

First: CC(=O)N1CCN(c2ccc(CNc3ccc(OCc4ccc(C(F)F)nc4)nn3)cc2)CC1 [Example 3, 1-[4-(4-{[(6-{[6-(Difluoromethyl)pyridin-3-yl]methoxy}pyridazin-3-yl)amino]methyl}-phenyl)piperazin-1-yl]ethan-1-one]
Second: O=C(NC[C@@H]1[C@H]2CN(C(=O)OCc3cc(C(F)(F)F)cc(C(F)(F)F)c3)C[C@@H]12)c1ccc2[nH]nnc2c1 [reference compound]
The “LPA reduction at 8 h” value of the first is higher: 99.9% for the first, 40.7% for the second.

Biological target: Human ATX (Homo sapiens (Human), UniProt Q13822)
Assay: Assay A: Biochemical ATX Assay
Conditions: 5 nM recombinant ATX, 18:1 LPC substrate, 2 h at room temperature, formation of 18:1 LPA by RapidFire MS
Procedure: 5 nM recombinant ATX (Cayman Chemicals) was supplemented to 50 mM Tris buffer (pH 8.0) containing 3 mM KCl, 1 mM CaCl2, 1 mM MgCl2 0.14 mM NaCl, and 0.1% bovine serum albumin. Test compounds were dissolved in DMSO and tested in the range of 0.1 nM to 10 μM. The enzymatic reaction (22.5 μL) was started by addition of 2.5 μL 10 μM 18:1 LPC (Avanti Lipids, Alabaster, AL, USA). After 2-h incubation at room temperature, the reaction was stopped by addition of 20 μL water containing 500 nM 20:4 LPA as internal standard and 100 μL 1-butanol for extracting LPA. Subsequently, the plates were centrifuged at 4000 rpm, 4° C., for 2 min. The resultant upper butanol phase was directly used for injection at a RapidFire system (Agilent).
The RapidFire autosampler was coupled to a binary pump (Agilent 1290) and a Triple Quad 6500 (ABSciex, Toronto, Canada). […] 1 The MS was operated in negative mode with a source temperature of 550° C., curtain gas=35, gas 1=65, and gas 2=80. The following transitions and MS parameters (DP: declustering potential and CE: collision energy) for the respective LPAs were determined: • 18:1 LPA at 435.2/152.8, DP=−40, CE=−28 and 20:4 LPA at 457.2/152.8, DP=−100, CE=−27).
The formation of 18:1 LPA was monitored and evaluated as ratio to 20:4 LPA.

First: CC(=O)N1CC2(C1)CN(c1ccc(CNc3ccc(OCc4ccc(C(F)(F)F)nc4)nn3)cc1)C2 [Example 1.1, 1-(6-(4-(((6-((6-(trifluoromethyl)pyridin-3-yl)methoxy)pyridazin-3-yl)amino)methyl)phenyl)-2,6-diazaspiro[3.3]heptan-2-yl)ethan-1-one]
Second: CC(=O)N1CCC2(CC1)CN(c1ccc(CNc3ccc(OCc4ccc(C(F)(F)F)nc4)nn3)cc1)C2 [Example 2.22]
The IC50 of the first is 1.8-fold lower: 3.4 nM for the first, 6.2 nM for the second. The first is the more potent here.

First: CC(=O)N1CC2(C1)CN(c1ccc(CNc3ccc(OCc4ccc(C(F)F)nc4)nn3)cc1)C2 [Example 1.2]
Second: CC(=O)N1CCC2(CC1)CN(c1ccc(CNc3ccc(OCc4ccc(C(F)F)nc4)nn3)cc1)C2 [Example 1.6]
The IC50 of the first is 2.2-fold lower: 2.9 nM for the first, 6.5 nM for the second.

Compared with `CC(=O)N1CCN(c2ccc(CNc3ccc(OCc4ccc(C(F)F)nc4)nn3)cc2F)CC1` [Example 1.3], `CC(=O)N1CCN(c2ccc(CNc3ccc(OCc4ccc(C(F)F)nc4)nn3)c(F)c2)CC1` [Example 1.4] is 2.2-fold higher in IC50: 1.5 nM for the first, 3.3 nM for the second.

`CN1CC2(CC1=O)CN(c1ccc(CNc3ccc(OCc4ccc(C(F)F)nc4)nn3)cc1)C2` [Example 1.5] and `CC(=O)N1CCN(c2ccc(CNc3ccc(OCc4ccc(C(F)F)nc4)nn3)cc2)CC1` [Example 3, 1-[4-(4-{[(6-{[6-(Difluoromethyl)pyridin-3-yl]methoxy}pyridazin-3-yl)amino]methyl}-phenyl)piperazin-1-yl]ethan-1-one] are within 1.5-fold of each other in IC50: 3.9 nM for the first, 2.9 nM for the second.

Compared with `CC(=O)N1CCN(c2ccc(CNc3ccc(OCc4ccc(C(F)F)nc4)nn3)cc2)CC1(C)C` [Example 1.7], `CC(=O)N1C[C@@H]2CN(c3ccc(CNc4ccc(OCc5ccc(C(F)F)nc5)nn4)cc3)C[C@@H]2C1` [Example 2.14] is 2.8-fold higher in IC50: 1.6 nM for the first, 4.4 nM for the second. The first is the more potent here.

`CC(=O)N(C)C1CCN(c2ccc(CNc3ccc(OCc4ccc(C(F)(F)F)nc4)nn3)cc2)CC1` [Example 2.1, N-methyl-N-[1-(4-{[(6-{[6-(trifluoromethyl)pyridin-3-yl]methoxy}pyridazin-3-yl)amino]methyl}phenyl)piperidin-4-yl]acetamide] and `CC(=O)N1CCN(c2ccc(CNc3ccc(OCc4ccc(C(F)(F)F)nc4)nn3)cc2)CC1` [Example 2.2] are within 1.5-fold of each other in IC50: 2.3 nM for the first, 3 nM for the second.

`CC(=O)N1CCN(c2ccc(CNc3ccc(OCc4ccc(C(F)F)nc4)nn3)cn2)CC1` [Example 2.3] and `CC(=O)N1CCN(c2ccc(CNc3ccc(OCc4ccc(C(F)(F)F)nc4)nn3)cn2)CC1` [Example 2.5] are within 1.5-fold of each other in IC50: 2.2 nM for the first, 2.5 nM for the second.

`CC(=O)N1CCN(c2ccc(CNc3ccc(OCc4ccc(C(F)F)nc4)nn3)nc2)CC1` [Example 2.4] and `CC(=O)N1CCN(c2ccc(CNc3ccc(OCc4ccc(C(F)(F)F)nc4)nn3)nc2)CC1` [Example 2.15] are within 1.5-fold of each other in IC50: 1.9 nM for the first, 2.2 nM for the second.

Compared with `CC(=O)N1CC2CC1CN2c1ccc(CNc2ccc(OCc3ccc(C(F)F)nc3)nn2)cc1` (centres unmarked) [Example 2.6], `CC(=O)N1CC2CC1CN2c1ccc(CNc2ccc(OCc3ccc(C(F)(F)F)nc3)nn2)cc1` (centres unmarked) [Example 2.23] is 2.2-fold higher in IC50: 1.8 nM for the first, 3.9 nM for the second. The first is the more potent here.

First: CC(=O)N1CCN(c2ccc(CNc3ccc(OCc4ccc(C(F)F)nc4)nn3)c(C(F)(F)F)c2)CC1 [Example 2.7]
Second: CC(=O)N1CCN(c2ccc(CNc3ccc(OCc4cnc(C(F)F)c(F)c4)nn3)cc2)CC1 [Example 2.12]
The IC50 of the first is 1.8-fold lower: 1.9 nM for the first, 3.5 nM for the second.

`FC(F)(F)c1ccc(COc2ccc(NCc3ccc(N4CCN(C5COC5)CC4)cc3)nn2)cn1` [Example 2.8] and `FC(F)c1ccc(COc2ccc(NCc3ccc(N4CCN(C5COC5)CC4)cc3)nn2)cn1` [Example 2.10] are within 1.5-fold of each other in IC50: 2 nM for the first, 1.8 nM for the second.

First: CC(=O)N1CC2(C1)CN(c1ccc(CNc3ccc(OCc4ccc(C(F)(F)F)nc4)nn3)cc1F)C2 [Example 2.9]
Second: CC(=O)N1CC2(C1)CN(c1ccc(CNc3ccc(OCc4ccc(C(F)(F)F)nc4)nn3)c(F)c1)C2 [Example 2.21]
The IC50 of the first is 1.5-fold higher: 3.7 nM for the first, 2.4 nM for the second. The second is the more potent here.

Going from `CC(=O)N[C@H]1[C@@H]2CN(c3ccc(CNc4ccc(OCc5ccc(C(F)(F)F)nc5)nn4)cc3)C[C@@H]21` [Example 2.11] to `CC(=O)N1C[C@@H]2[C@H](C1)[C@H]1CN(c3ccc(CNc4ccc(OCc5ccc(C(F)(F)F)nc5)nn4)cc3)C[C@@H]21` [Example 5, 1-((3aR,3bS,6aR,6bS)-5-(4-(((6-((6-(trifluoromethyl)pyridin-3-yl)methoxy)pyridazin-3-yl)amino)methyl)phenyl)octahydrocyclobuta[1,2-c:3,4-c′]dipyrrol-2(1H)-yl)ethan-1-one], the IC50 rises from 3.8 nM to 7 nM (1.8-fold). The first is the more potent here.

First: CC(=O)N1C[C@@H]2CN(c3ccc(CNc4ccc(OCc5ccc(C(F)(F)F)nc5)nn4)cc3)C[C@@H]2C1 [Example 2.13]
Second: CC(=O)N1CC[C@@H]2CN(c3ccc(CNc4ccc(OCc5ccc(C(F)(F)F)nc5)nn4)cc3)C[C@@H]2CC1 [Example 4, 1-[(3aR,8aS)-2-(4-{[(6-{[6-(trifluoromethyl)pyridin-3-yl]methoxy}pyridazin-3-yl)amino]methyl}phenyl)-decahydropyrrolo[3,4-d]azepin-6-yl]ethan-1-one]
The IC50 of the first is 2.1-fold lower: 4 nM for the first, 8.6 nM for the second. The first is the more potent here.

`CC(=O)N1CCC2(CC1)CN(c1ccc(CNc3ccc(OCc4ccc(C(F)F)nc4)nn3)nc1)C2` [Example 2.16] and `CC(=O)N1CCC2(CC1)CN(c1ccc(CNc3ccc(OCc4ccc(C(F)F)nc4)nn3)cn1)C2` [Example 2.18] are within 1.5-fold of each other in IC50: 10.4 nM for the first, 9.2 nM for the second.

Compared with `CC(=O)N1CCC2(CC1)CN(c1ccc(CNc3ccc(OCc4ccc(C(F)(F)F)nc4)nn3)cn1)C2` [Example 2.17], `CC(=O)N1CC2CCC(C1)N2c1ccc(CNc2ccc(OCc3ccc(C(F)(F)F)nc3)nn2)cc1` [Example 2.19] is 2.2-fold lower in IC50: 5.2 nM for the first, 2.4 nM for the second. The second is the more potent here.

In the case of `CC(=O)N1CC2CCC1CN2c1ccc(CNc2ccc(OCc3ccc(C(F)(F)F)nc3)nn2)cc1` (centres unmarked) [Example 2.20], the IC50 is reported as 2.9 nM.
